Assays:
[1] = test system: HEXIM1, HIST2H2BF, and CCR2; assay: NanoString gene expression in blood (target engagement); assay type: in vivo, human
Procedure: The evaluation of biomarkers to identify patient subgroups with differential prognosis or response to treatment was exploratory, with no formal endpoints defined. Blood samples were assessed using an in-house-designed NanoString panel (NanoString, Seattle, WA) measuring gene expression levels of HEXIM1, HIST2H2BF, and CCR2 over all time points, and postdose expression levels of HEXIM1, HIST2H2BF, and CCR2 on days 14 and 15. HEXIM1 is modulated by BET family proteins and is considered a robust pharmacodynamic marker of BET inhibition,[30] whereas HIST2H2BF and CCR2 are involved in cancer pathways.[31]^,[32]
Total RNA was extracted from whole blood using PAXgene Blood RNA kit (Qiagen, Hilden, Germany) following the manufacturer’s instructions. Total RNA was quantified by direct absorbance measurement at 260 nm using a NanoDrop Spectrophotometer (Thermo Fisher, Waltham, MA). Quality check was carried out by additional measurement of absorbance at 280 nm and calculation of the absorbance ratio OD260/OD280.
mRNA expression was assessed using a custom nCounter® (NanoString, Seattle, WA) codeset generated for the genes of interest plus housekeeping genes. Probes were hybridized to 150 ng of total RNA for 19 h at 65°C and applied to the nCounter® Preparation Station for automated removal of excess probe and immobilization of probe–transcript complexes on a streptavidin-coated cartridge. Data were collected using the nCounter® Digital Analyzer by counting the individual barcodes. Data were analyzed using an in-house analysis pipeline that follows the latest NanoString Technologies standards for the analysis of nCounter® data. The analysis pipeline includes quality checking of the raw data using the NAnostring quality Control dasHbOard (NACHO), a comprehensive method to optimize the quality control of nCounter® data.[33] The housekeeping genes ACTB, GAPDH, HPRT1, MGAT1, and TMED9 were used for normalization.

[2] = test system: colorectal cancer (CRC) cell lines; parameters: method as in earlier work; details: cited from earlier work
BRD4-BD2 = test system: BRD4-BD2; parameters: method as in PMID 35444289; details: read-out: IC50, inhibition of interaction of acetylated histone H4-derived peptide with BRD4-BD2; cited from earlier work
[3] = test system: patients with advanced solid tumors (SCLC, CRC, mCRPC, NUT carcinoma); assay: phase Ib expansion: tumor response (RECIST 1.1), PFS, OS; assay type: in vivo, human; details: for Best overall response: complete response / Best overall response: not evaluable / Best overall response: partial response / Best overall response: progressive disease / Best overall response: stable disease / Disease control / Median PFS / Objective response / Median OS: phase Ib
Procedure: PFS was measured for the period from the start of treatment to the occurrence of progressive disease or death. Tumor response was measured using RECIST 1.1[28] for patients with solid tumors and RECIL 2017[29] for those with DLBCL. OS was assessed in patients with NUT carcinoma; the OS status was to continue until 12 months after the end of the study.
Supplementary Table 1. […]
• Objective response (OR), defined as complete response (CR) or partial response (PR) with tumor assessment during treatment period for each schedule according to Response Evaluation Criteria in Solid Tumors (RECIST) version 1.1. For DLBCL patients, a minor response according to Response Evaluation Criteria in Lymphoma (RECIL) 2017 was not part of an OR […]
• Progression-free survival (PFS), defined from date of start of BI 894999 to the date of objective disease progression or death, whichever was earlier, with tumor assessment every 2 cycles (every 6 weeks for Schedule B if no delays or as close as possible to the end of the second of the 2 cycles of treatment if there was a delay) during the treatment period
Radiological PFS with tumor assessment by bone scan every 4 cycles for mCRPC patients with non-measurable disease by RECIST 1.1 […]
• Overall survival in patients with NUT carcinoma. This was for patients in the trial after approval of […]
The overall survival status was to continue until 12 months after the end of trial […]
AUC0–24, area under the plasma concentration–time curve over the 24-hour dosing interval; AUCτ, ss , area under the plasma concentration–time curve over the dosing interval τ at steady state; AE, adverse event; Cmax, maximal exposure; Cma x , s s , maximal exposure at steady state; DLBCL, diffuse large B- cell lymphoma; DLT, dose-limiting toxicity; mCRPC, metastatic castration-resistant prostate cancer; NUT, nuclear protein in […]

In the case of `CNc1nc(-c2nc3ccc(N4CCN(C)CC4)cc3n2Cc2ccccc2)cn2c(C)nnc12` [BI 894999], the “target engagement (≥2 of 3 genes with twofold or greater change)” value ([1]; phase Ia DLBCL patient blood samples) is reported as “target engagement was seen at all dose levels”, the “HEXIM1 induction, median fold change from baseline” value ([1]; phase Ib, NUT carcinoma, blood) is reported as 1.93 and the “target engagement (≥2 of 3 genes with twofold or greater change)” value ([1]; phase Ib, blood samples from the various solid tumor entities) is reported as “all showed target engagement”. For the same compound, the “activity against colorectal cancer (CRC) cell lines” value [2] was “demonstrated activity”, the IC50 (BRD4-BD2) was 41 ± 30 nM and the “patients with SD” value ([3]; CRC) was 2 n. For the same compound, the “observed objective response rate” value ([3]; NUT carcinoma) was under 10%, the patients not assessable ([3]; NUT carcinoma, 42 patients) was 19.0% and the “patients with SD” value ([3]; NUT carcinoma, 42 patients) was 31.0%. The “patients with complete response” value ([3]; NUT carcinoma, 42 patients) was 1 n, the “patients with confirmed CR” value ([3]; NUT carcinoma, 42 patients) was 2.4% and the “patients with disease control” value ([3]; NUT carcinoma, 42 patients) was 16 patients. For the same compound, the “patients with progressive disease” value ([3]; NUT carcinoma, 42 patients) was 42.9%, the patients with responses ([3]; NUT carcinoma, 42 patients) was 7.1% and the “duration of response (DOR) of confirmed CR” value ([3]; NUT carcinoma, one patient) was 253 days. The “duration of response (DOR) of confirmed PR” value ([3]; NUT carcinoma, one patient) was 588 days, the “patients with SD” value ([3]; SCLC) was 1 n and the “patients with SD” value ([3]; mCRPC) was 2 n. For the same compound, the “duration of response (DOR) of confirmed PR” value ([3]; mCRPC, one patient) was 46 days, the patients not assessable ([3]; other solid tumor types n = 37) was 24.3% and the “patients with SD” value ([3]; other solid tumor types n = 37) was 13.5%. The “patients with confirmed PR (mCRPC)” value ([3]; other solid tumor types n = 37) was 2.7%, the “patients with progressive disease” value ([3]; other solid tumor types n = 37) was 59.5% and the “patients with confirmed CR (BOR)” value ([3]; phase Ib n = 79) was 1.3%. For the same compound, the “Best overall response: complete response” value ([3]; CRC) was 0 (0.0) n (%), the “Best overall response: not evaluable” value ([3]; CRC) was 2 (14.3) n (%) and the “Best overall response: partial response” value ([3]; CRC) was 0 (0.0) n (%). For the same compound, the “Best overall response: progressive disease” value ([3]; CRC) was 10 (71.4) n (%), the “Best overall response: stable disease” value ([3]; CRC) was 2 (14.3) n (%) and the Disease control ([3]; CRC) was 2 (14.3) n (%). For the same compound, the “Median PFS” value ([3]; CRC) was 5.6 weeks, the Objective response ([3]; CRC) was 0 (0.0) n (%) and the “Best overall response: complete response” value ([3]; NUT carcinoma (Schedule B)) was 0 (0.0) n (%). The “Best overall response: not evaluable” value ([3]; NUT carcinoma (Schedule B)) was 3 (15.0) n (%), the “Best overall response: partial response” value ([3]; NUT carcinoma (Schedule B)) was 1 (5.0) n (%) and the “Best overall response: progressive disease” value ([3]; NUT carcinoma (Schedule B)) was 9 (45.0) n (%). The “Best overall response: stable disease” value ([3]; NUT carcinoma (Schedule B)) was 7 (35.0) n (%), the Disease control ([3]; NUT carcinoma (Schedule B)) was 8 (40.0) n (%) and the “Median OS” value ([3]; NUT carcinoma (Schedule B)) was 6.6 weeks. The “Median PFS” value ([3]; NUT carcinoma (Schedule B)) was 6.9 weeks, the Objective response ([3]; NUT carcinoma (Schedule B)) was 1 (5.0) n (%) and the “Best overall response: complete response” value ([3]; NUT carcinoma (Schedule C)) was 1 (4.5) n (%). The “Best overall response: not evaluable” value ([3]; NUT carcinoma (Schedule C)) was 5 (22.7) n (%), the “Best overall response: partial response” value ([3]; NUT carcinoma (Schedule C)) was 1 (4.5) n (%) and the “Best overall response: progressive disease” value ([3]; NUT carcinoma (Schedule C)) was 9 (40.9) n (%). For the same compound, the “Best overall response: stable disease” value ([3]; NUT carcinoma (Schedule C)) was 6 (27.3) n (%), the Disease control ([3]; NUT carcinoma (Schedule C)) was 8 (36.4) n (%) and the “Median OS” value ([3]; NUT carcinoma (Schedule C)) was 15.4 weeks. For the same compound, the “Median PFS” value ([3]; NUT carcinoma (Schedule C)) was 7.8 weeks, the Objective response ([3]; NUT carcinoma (Schedule C)) was 2 (9.1) n (%) and the “Median OS” value ([3]; NUT carcinoma total) was 15.4 weeks. For the same compound, the “Best overall response: complete response” value ([3]; SCLC) was 0 (0.0) n (%), the “Best overall response: not evaluable” value ([3]; SCLC) was 3 (25.0) n (%) and the “Best overall response: partial response” value ([3]; SCLC) was 0 (0.0) n (%). For the same compound, the “Best overall response: progressive disease” value ([3]; SCLC) was 8 (66.7) n (%), the “Best overall response: stable disease” value ([3]; SCLC) was 1 (8.3) n (%) and the Disease control ([3]; SCLC) was 1 (8.3) n (%). For the same compound, the “Median PFS” value ([3]; SCLC) was 5.6 weeks, the Objective response ([3]; SCLC) was 0 (0.0) n (%) and the “Best overall response: complete response” value ([3]; mCRPC) was 0 (0.0) n (%). For the same compound, the “Best overall response: not evaluable” value ([3]; mCRPC) was 4 (36.4) n (%), the “Best overall response: partial response” value ([3]; mCRPC) was 1 (9.1) n (%) and the “Best overall response: progressive disease” value ([3]; mCRPC) was 4 (36.4) n (%). For the same compound, the “Best overall response: stable disease” value ([3]; mCRPC) was 2 (18.2) n (%), the Disease control ([3]; mCRPC) was 3 (27.3) n (%) and the “Median PFS” value ([3]; mCRPC) was 11.9 weeks. For the same compound, the Objective response ([3]; mCRPC) was 1 (9.1) n (%), the “Best overall response: complete response” value ([3]; total) was 1 (1.3) n (%) and the “Best overall response: not evaluable” value ([3]; total) was 17 (21.5) n (%). The “Best overall response: partial response” value ([3]; total) was 3 (3.8) n (%), the “Best overall response: progressive disease” value ([3]; total) was 40 (50.6) n (%) and the “Best overall response: stable disease” value ([3]; total) was 18 (22.8) n (%). The Disease control ([3]; total) was 22 (27.8) n (%), the “Median PFS” value ([3]; total) was 6.9 weeks and the Objective response ([3]; total) was 4 (5.1) n (%).
